Like-named read-outs stand apart in the source and are kept apart here.
Tests used:
[1] = target: T1, GST-CIB1 : F-scrambled peptide (Homo sapiens, UniProt Q99828); test: FP scrambled-peptide counter screen, 1536-well format; assay type: binding; details: for COUNTERSCREEN Curve Class / Curve Class (counterscreen): qHTS curve class
T1 construct: made in house; host or cells: BL-21 plus RIL cells (E. coli)
T1 sequence (Q99828 1-191): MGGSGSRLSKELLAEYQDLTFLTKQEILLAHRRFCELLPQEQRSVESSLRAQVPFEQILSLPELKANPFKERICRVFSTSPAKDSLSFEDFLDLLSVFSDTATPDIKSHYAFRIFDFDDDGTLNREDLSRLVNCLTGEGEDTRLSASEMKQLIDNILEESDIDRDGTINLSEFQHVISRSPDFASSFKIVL

[2] = target: T2, CIB1 and αIIb interaction (CIB1-GST : F-αIIb peptide) (Homo sapiens, UniProt Q99828); test: FP assay, 1536-well qHTS format (primary and confirmatory screen); assay type: binding; details: for CONFIRMATORY SCREEN Curve Class / Curve Class (confirmatory screen): qHTS curve class
T2 construct: made in house; host or cells: BL-21 plus RIL cells (E. coli)
T2 sequence (Q99828 1-191): T1 sequence (Q99828 1-191)

[3] = qHTS primary screen hits, Table S2, negative = inhibition
[4] = qHTS primary screen hits, Table S2, negative sign = inhibitory curve, several classes where COUNT > 1
[5] = qHTS primary screen hits, Table S2, read-out: IC50
[6] = counterscreen, negative sign = inhibitory curve
[7] = counterscreen, read-out: IC50 [μM] (counterscreen)
[8] = confirmatory screen, negative sign = inhibitory curve
[9] = confirmatory screen, read-out: IC50 [μM] (confirmatory screen)
[10] = scrambled-peptide counterscreen
[11] = scrambled-peptide counterscreen, YES/NO call
[12] = confirmatory screen, YES/NO call
[13] = confirmatory screen, negative = inhibition
[14] = confirmatory screen, read-out: CONFIRMATORY SCREEN IC50
[15] = Table S3, counterscreen, a negative sign marks inhibitory curves
[16] = Table S3, counterscreen, negative = inhibition
[17] = Table S3, counterscreen, read-out: IC50 [μM] (counterscreen)
[18] = Table S3, confirmatory screen, a negative sign marks inhibitory curves
[19] = Table S3, confirmatory screen, negative = inhibition
[20] = qHTS FP screen hits, Table S2, negative = inhibition
[21] = qHTS FP screen hits, Table S2, one class per curve where COUNT > 1, negative sign = inhibitory curve
[22] = qHTS FP screen hits, Table S2, read-out: IC50
[23] = Table S3, confirmatory screen, YES/NO call

Compound | Efficacy (%) [2, 3] [%] | Curve Class [2, 4] | IC50 [2, 5] [µM] | Efficacy (%) (counterscreen) ([1]; counterscreen) | Curve Class (counterscreen) [1, 6] | IC50 [1, 7] [µM] | Efficacy (%) (confirmatory screen) ([2]; confirmatory screen) | Confirm? (confirmatory screen) ([2]; confirmatory screen, YES/NO) | Curve Class (confirmatory screen) [2, 8] | IC50 [2, 9] [µM] | Curve Class (counterscreen) [1, 15] | Efficacy (%) (counterscreen) [1, 16] | Curve Class (confirmatory screen) [2, 18] | Efficacy (%) (confirmatory screen) [2, 19] | Efficacy (%) [2, 20] [%] | Curve Class [2, 21] | IC50 [2, 22] [µM] | also measured
C[C@H]1COC2=C1C(=O)C(=O)c1c2ccc2c1CCCC2(C)C [NCGC00163650-02] | -26 | -2.4 | 30.4 | – | – | – | – | – | – | – | – | – | – | – | – | – | – | COUNTERSCREEN Efficacy (%) ([1]; counterscreen): -18%; COUNTERSCREEN Curve Class ([1]; counterscreen): 4; CONFIRMATORY SCREEN Efficacy (%) ([2]; confirmatory screen): 0%; CONFIRMATORY SCREEN Curve Class ([2]; confirmatory screen): 4
Cc1cccc(C(=O)c2no[n+]([O-])c2C(=O)c2cccc(C)c2)c1.O=C(O)C(F)(F)F [NCGC00351156-01] | -52 | -1.2 | 7.9 | -65 | -1.2 | 10 | -73 | YES | -2.2 | 31.6 | – | – | – | – | – | – | – | –
Cl.O=[N+]([O-])c1cccc(CNc2ccc(S(=O)(=O)Nc3nccs3)cc2)c1O [NCGC00273554-01] | -27 | -1.4 | 7.1 | -43 | -2.2 | 50.1 | -49 | YES | -2.4 | 22.4 | – | – | – | – | – | – | – | –
CNC(=S)N/N=C1\C(=O)Nc2ccccc21.O=C(O)C(F)(F)F [NCGC00229528-01] | -26 | -1.4 | 7.9 | – | – | – | – | – | – | – | – | – | – | – | – | – | – | COUNTERSCREEN Efficacy (%) [1, 10]: -28%; COUNTERSCREEN Confirm? [1, 11]: YES; COUNTERSCREEN Curve Class [1, 10]: 4; CONFIRMATORY SCREEN Confirm? [2, 12]: YES; CONFIRMATORY SCREEN Curve Class [2, 8]: -1.4; CONFIRMATORY SCREEN Efficacy (%) [2, 13]: -28%; IC50 [2, 14]: 14.1 µM
COC(=O)c1ccc(O)c2ncc(-c3ccc(C(=O)N4CCNCC4)cc3)cc12.O=C(O)C(F)(F)F [NCGC00189509-01] | -45 | -1.2 | 28.2 | – | – | – | – | – | – | – | – | – | – | – | – | – | – | COUNTERSCREEN Efficacy (%) ([1]; counterscreen): -25%; COUNTERSCREEN Curve Class ([1]; counterscreen): 4; CONFIRMATORY SCREEN Efficacy (%) ([2]; confirmatory screen): -16%; CONFIRMATORY SCREEN Curve Class ([2]; confirmatory screen): 4
O=C(O)C(F)(F)F.O=C1Nc2ccccc2/C1=N/NC(=S)Nc1ccccc1 [NCGC00229542-01] | -27 | -1.4 | 10 | -34 | -1.2 | 4.5 | -50 | YES | -1.4 | 3.2 | – | – | – | – | – | – | – | –
O=C(O)c1csc(-n2nc(-c3ccc(F)c(F)c3)c3cccnc32)n1 [NCGC00356667-01] | – | – | – | – | – | – | – | – | – | – | 3 | 64 | 4 | -16 | -32 | -1.2 | 3.5 | IC50 [1, 17]: 89.1 µM
COc1ccc2nc3[nH]nc(C)c3c(NCCOCCO)c2c1 [NCGC00384193-04] | – | – | – | – | – | – | – | – | – | – | -2.2 | -75 | -2.2 | -47 | -75 | -2.2 | 50.1 | IC50 [1, 17]: 89.1 µM; Confirm? (confirmatory screen) [2, 23]: YES
CN(CC(=O)Nc1ccc(N2CCOCC2)cc1)Cc1c(O)ccc2ccccc12.O=C(O)C(F)(F)F [NCGC00229682-01] | -68 | -2.2 | 39.8 | – | – | – | – | – | – | – | -2.2 | -57 | 4 | -47 | – | – | – | Confirm? (counterscreen) ([1]; Table S3, counterscreen, YES/NO call): YES; IC50 [1, 17]: 70.8 µM
Cc1cc(/N=N/c2ccc(S(=O)(=O)Nc3ccccn3)cc2)c(N)cc1O [NCGC00356068-01] | – | – | – | -44 | -1.2 | 44.7 | -64 | YES | -2.2 | 39.8 | – | – | – | – | -50 | -2.2 | 35.5 | –
CC1=C(C(=O)Nc2cccc(C(=O)O)c2)C(c2ccccc2Cl)N=C(Nc2nc3ccccc3o2)N1.O=C(O)C(F)(F)F (centres unmarked) [NCGC00351024-01] | – | – | – | 141 | – | 79.4 | -26 | YES | -2.4 | – | – | – | – | – | -37 | -2.2 | 39.8 | Confirm? (counterscreen) ([1]; counterscreen, YES/NO): YES
O=C(O)C(F)(F)F.Oc1cccc2cc(C3CC3)cnc12 [NCGC00188747-01] | – | – | – | – | – | – | – | – | – | – | 4 | -25 | 4 | -17 | -36 | -1.2 | 31.6 | –
CCC(OC(=O)c1ccc(S(C)(=O)=O)c([N+](=O)[O-])c1)C(=O)NC1C2CC3CC(C2)CC1C3 (centres unmarked) [NCGC00188536-01] | -27 | -1.4 | 1.4 | – | – | – | – | – | – | – | – | – | – | – | – | – | – | COUNTERSCREEN Efficacy (%) [1, 10]: -50%; COUNTERSCREEN Confirm? [1, 11]: YES; COUNTERSCREEN Curve Class [1, 10]: -2.2; IC50 ([1]; scrambled-peptide counterscreen, read-out: COUNTERSCREEN IC50): 31.6 µM; CONFIRMATORY SCREEN Confirm? [2, 12]: YES; CONFIRMATORY SCREEN Curve Class [2, 8]: -1.4; CONFIRMATORY SCREEN Efficacy (%) [2, 13]: -52%; IC50 [2, 14]: 2.5 µM
CC(=O)c1c(O)cc2c(c1C)C(=O)CC(O)C2 (centres unmarked) [NCGC00380695-01] | – | – | – | – | – | – | – | – | – | – | -3 | 0 | 4 | -25 | -53 | -2.2 | 56.2 | –
C=C1C(=O)O[C@@H]2[C@H]3C(C)=CC(=O)C3=C(C)[C@@H](OC(=O)/C(C)=C\C)[C@H](O)[C@@H]12 [NCGC00380702-01] | – | – | – | -39 | -1.2 | 1.6 | -43 | YES | -1.2 | 1.6 | – | – | – | – | -35 | -1.2 | 3.5 | –
CN(C)CCc1c[nH]c2cccc(O)c12 [NCGC00247728-01] | -105 | -2.3 | 28.2 | – | – | – | – | – | – | – | -2.1 | -126 | -2.2 | -101 | – | – | – | IC50 [1, 17]: 89.1 µM; Confirm? (confirmatory screen) [2, 23]: YES; IC50 ([2]; Table S3, confirmatory screen, read-out: IC50 [μM] (confirmatory screen)): 112 µM
O=C(Cc1ccccc1)NC(c1ccco1)c1cc(Cl)c2cccnc2c1O.O=C(O)C(F)(F)F (centres unmarked) [NCGC00188377-01] | -35 | -2.2 | 39.8 | – | – | – | – | – | – | – | 3 | 61 | 4 | -25 | – | – | – | IC50 [1, 17]: 89.1 µM
O=C(O)C(F)(F)F.O=C1CCCC2=C1C(c1ccncc1)N=C(Nc1nc3ccccc3o1)N2 (centres unmarked) [NCGC00188839-01] | -44 | -2.2 | 28.2 | – | – | – | – | – | – | – | 4 | -13 | 4 | -25 | – | – | – | –
Cc1cc(C(C#N)c2ccc(Cl)cc2)c(Cl)cc1NC(=O)c1cc(I)cc(I)c1O (centres unmarked) [NCGC00166312-02] | – | – | – | – | – | – | – | – | – | – | – | 117 | 4 | -32 | -35 | – | – | IC50 [1, 17]: 31.6 µM; IC50 ([2]; IC50 [μM], qHTS FP screen hits, Table S2): 27 µM
CCOC(=O)c1c(-c2ccc(C)o2)csc1NC(=O)CSc1nnnn1-c1ccccc1.O=C(O)C(F)(F)F [NCGC00041785-02] | -58 | -1.2 | 28.2 | -23 | 4 | – | -47 | YES | -2.2 | 39.8 | – | – | – | – | – | – | – | Confirm? (counterscreen) ([1]; counterscreen, YES/NO): YES
Cc1cc2nc3ccc(N(C)C)cc3[s+]c2cc1N.Cl.[Cl-] [NCGC00181775-02] | -38 | -2.4 | 39.8 | -83 | -2.2 | 44.7 | -72 | YES | -2.2 | 22.4 | – | – | – | – | – | – | – | –
CC(O)c1ccc(-c2ccc3ncnc(N4CCOCC4)c3c2)o1.O=C(O)C(F)(F)F (centres unmarked) [NCGC00238381-02] | – | – | – | – | – | – | – | – | – | – | – | – | – | – | -19 | – | 14.1 | COUNTERSCREEN Efficacy (%) ([1]; counterscreen): -14%; COUNTERSCREEN Curve Class ([1]; counterscreen): 4; CONFIRMATORY SCREEN Efficacy (%) ([2]; confirmatory screen): -26%; CONFIRMATORY SCREEN Curve Class ([2]; confirmatory screen): 4
